Results reported in PubChem BioAssay AID330 (DTP/NCI, 2004).
Several values for one entry are separate records, joined by “and”; a condition that tells them apart may be missing. Equal values may be shown once. Toxic doses and inconclusive results are not listed. The calls were made as follows: active = survival T/C of 150% or more; inactive = T/C below 125% in these data.

Test system: P388 leukemia ip, CD2F1 mice, survival T/C
Assay: NCI In Vivo Anticancer Drug Screen. Data for tumor model P388 Leukemia (intraperitoneal) in CD2F1 (CDF1) mice
Details: endpoint: median survival time, higher = longer survival
Outline: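 Mice carrying the transplanted tumor received test compound or vehicle. Survival was recorded in each group, and the value is the treated-group measurement divided by that of the vehicle-treated control group.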

[1] = dose: 25.0 mg/kg/injection, schedule: Q01DX009 (ip), vehicle: saline
[2] = dose: 100.0 mg/kg/injection, schedule: Q01DX009 (ip), vehicle: saline with Tween-80
[3] = dose: 200.0 mg/kg/injection, schedule: Q01DX009 (ip), vehicle: saline with Tween-80
[4] = dose: 400.0 mg/kg/injection, schedule: Q01DX009 (ip), vehicle: saline with Tween-80
[5] = dose: 12.5 mg/kg/injection, schedule: Q01DX009 (ip), vehicle: saline with Tween-80
[6] = dose: 50.0 mg/kg/injection, schedule: Q01DX009 (ip), vehicle: saline with Tween-80
[7] = dose: 50.0 mg/kg/injection, schedule: Q01DX009 (ip), vehicle: saline
[8] = dose: 100.0 mg/kg/injection, schedule: Q01DX009 (ip), vehicle: saline
[9] = dose: 200.0 mg/kg/injection, schedule: Q01DX009 (ip), vehicle: saline
[10] = dose: 12.5 mg/kg/injection, schedule: Q01DX005 (ip), vehicle: saline with Tween-80
[11] = dose: 50.0 mg/kg/injection, schedule: Q01DX005 (ip), vehicle: saline with Tween-80
[12] = dose: 200.0 mg/kg/injection, schedule: Q01DX005 (ip), vehicle: saline with Tween-80
[13] = dose: 60.0 mg/kg/injection, schedule: Q01DX005 (ip), vehicle: saline with Tween-80
[14] = dose: 120.0 mg/kg/injection, schedule: Q01DX005 (ip), vehicle: saline with Tween-80
[15] = dose: 240.0 mg/kg/injection, schedule: Q01DX005 (ip), vehicle: saline with Tween-80
[16] = dose: 25.0 mg/kg/injection, schedule: Q01DX009 (ip), vehicle: Klucel (hydroxypropylcellulose) (HPC)
[17] = dose: 100.0 mg/kg/injection, schedule: Q01DX005 (ip), vehicle: saline with Tween-80

Measured: T/C

COCCCOC(=O)NCCCCC([NH-])C(=O)O.COCCCOC(=O)NCCCCC([NH-])C(=O)O.[Cu+2] (stereo not given)
inactive: dose: 6.25 mg/kg/injection, schedule: Q01DX005 (ip), vehicle: Klucel (hydroxypropylcellulose) (HPC) 100 % of control | dose: 12.5 mg/kg/injection, schedule: Q01DX005 (ip), vehicle: Klucel (hydroxypropylcellulose) (HPC) 87 % of control | dose: 25.0 mg/kg/injection, schedule: Q01DX005 (ip), vehicle: Klucel (hydroxypropylcellulose) (HPC) 89 % of control

[Cu+2].[NH-]C(CO)C(=O)O.[NH-]C(Cc1cnc[nH]1)C(=O)O (stereo not given)
inactive: dose: 6.25 mg/kg/injection, schedule: Q01DX009 (ip), vehicle: saline 97 % of control | [1] 114 % of control

CC/S(=N\S(=O)(=O)c1ccc(C)cc1)c1ccccc1 (stereo not given)
inactive: [2] 100 % of control | [3] 109 % of control | [4] 100 % of control

O=c1nc(Oc2ccccc2)nc2ncccn12
inactive: dose: 6.25 mg/kg/injection, schedule: Q01DX009 (ip), vehicle: saline with Tween-80 101 % of control | [5] 112 % of control | [6] 114 % of control

CC1(C)N=C(N)N=C(N)N1c1cccc(CC(=O)Nc2ccccc2)c1
inactive: dose: 12.5 mg/kg/injection, schedule: Q01DX009 (ip), vehicle: saline sonified 95 % of control | dose: 12.5 mg/kg/injection, schedule: Q04DX003 (ip), vehicle: saline with Tween-80 109 % of control | dose: 25.0 mg/kg/injection, schedule: Q01DX009 (ip), vehicle: saline sonified 95 % of control | dose: 25.0 mg/kg/injection, schedule: Q04DX003 (ip), vehicle: saline with Tween-80 104 % of control | dose: 50.0 mg/kg/injection, schedule: Q01DX009 (ip), vehicle: saline sonified 90 % of control | dose: 50.0 mg/kg/injection, schedule: Q04DX003 (ip), vehicle: saline with Tween-80 109 % of control

O=C(O)c1sc(-c2ccccc2)c2c1-c1ccccc1C2=O
inactive: dose: 60.0 mg/kg/injection, schedule: Q01DX005 (ip), vehicle: Klucel (hydroxypropylcellulose) (HPC) 98 % of control | dose: 120.0 mg/kg/injection, schedule: Q01DX005 (ip), vehicle: Klucel (hydroxypropylcellulose) (HPC) 96 % of control | dose: 240.0 mg/kg/injection, schedule: Q01DX005 (ip), vehicle: Klucel (hydroxypropylcellulose) (HPC) 97 % of control

NCCc1ccc(N)cc1
inactive: [7] 100 % of control and 105 % of control | [8] 100 % of control and 96 % of control | [9] 86 % of control

COc1cc2c(cc1OC)C(Cc1ccc3cc(OC)c(OC)cc3c1)=NCC2
inactive: [2] 90 % of control | [3] 90 % of control | [4] 100 % of control

S=C(NNc1nnc(-c2ccccc2)c(-c2ccccc2)n1)Nc1ccc(Br)cc1
inactive: [10] 97 % of control | dose: 25.0 mg/kg/injection, schedule: Q01DX005 (ip), vehicle: saline with Tween-80 90 % of control | [11] 97 % of control | [12] 93 % of control

O=C(Nc1cc(-c2ccccc2)[nH]n1)c1ccccc1F
inactive: dose: 30.0 mg/kg/injection, schedule: Q01DX005 (ip), vehicle: saline with Tween-80 97 % of control | [13] 97 % of control | [14] 97 % of control | [15] 90 % of control

CN1CC2(C)OC3(CC2(C)N1C)N(C)N(C)CC3(C)O (stereo not given)
inactive: dose: 50.0 mg/kg/injection, schedule: Q01DX005 (ip), vehicle: saline 101 % of control | dose: 100.0 mg/kg/injection, schedule: Q01DX005 (ip), vehicle: saline 101 % of control | dose: 200.0 mg/kg/injection, schedule: Q01DX005 (ip), vehicle: saline 101 % of control

Clc1cc(Cl)cc(N=Cc2cccs2)c1
inactive: [7] 100 % of control | [8] 100 % of control | [9] 98 % of control

C1=C(c2ccccc2)[P+](c2ccccc2)(c2ccccc2)C=C(c2ccccc2)[P+]1(c1ccccc1)c1ccccc1
inactive: dose: 16.5 mg/kg/injection, schedule: Q04DX003 (ip), vehicle: saline 109 % of control | dose: 25.0 mg/kg/injection, schedule: Q04DX003 (ip), vehicle: saline 109 % of control | dose: 37.5 mg/kg/injection, schedule: Q04DX003 (ip), vehicle: saline 109 % of control

CN(C)C1C(=O)C(C(N)=O)=C(O)C2(O)C(=O)C3=C(O)c4c(O)cccc4C(C)(O)C3CC12.O.O.O.[Al] (stereo not given)
inactive: [16] 95 % of control | [11] 99 % of control | dose: 50.0 mg/kg/injection, schedule: Q01DX009 (ip), vehicle: Klucel (hydroxypropylcellulose) (HPC) 92 % of control | [17] 99 % of control | dose: 100.0 mg/kg/injection, schedule: Q01DX009 (ip), vehicle: Klucel (hydroxypropylcellulose) (HPC) 103 % of control | [12] 99 % of control | dose: 200.0 mg/kg/injection, schedule: Q01DX009 (ip), vehicle: Klucel (hydroxypropylcellulose) (HPC) 106 % of control | dose: 400.0 mg/kg/injection, schedule: Q01DX009 (ip), vehicle: Klucel (hydroxypropylcellulose) (HPC) 107 % of control

Cn1c(CN(CCN(Cc2nc3ccccc3n2C)Cc2nc3ccccc3n2C)Cc2nc3ccccc3n2C)nc2ccccc21
inactive: [11] 100 % of control | [17] 96 % of control | [12] 101 % of control

COc1ccc(C(=O)N2C=CC(=Cc3ccccc3)C=C2)cc1
inactive: dose: 6.25 mg/kg/injection, schedule: Q01DX009 (ip), vehicle: Klucel (hydroxypropylcellulose) (HPC) 103 % of control | dose: 12.5 mg/kg/injection, schedule: Q01DX009 (ip), vehicle: Klucel (hydroxypropylcellulose) (HPC) 102 % of control | [16] 97 % of control

O=c1[nH]cnc2n[nH]nc12
inactive: [5] 107 % of control | dose: 25.0 mg/kg/injection, schedule: Q01DX009 (ip), vehicle: saline with Tween-80 100 % of control | [6] 117 % of control | [2] 109 % of control | [3] 121 % of control

CC(C)c1nc(C=O)c(C=O)n1Cc1ccccc1
inactive: [13] 97 % of control | [14] 92 % of control | [15] 97 % of control

O=C(CCCCCCC(=O)ON1C(=O)CCC1=O)ON1C(=O)CCC1=O
inactive: [11] 122 % of control

CCOC(=O)CN(CCN(CC)CC)c1ccc([N+](=O)[O-])cc1[N+](=O)[O-]
inactive: dose: 100.0 mg/kg/injection, schedule: Q01DX001 (ip), vehicle: other 95 % of control | dose: 200.0 mg/kg/injection, schedule: Q01DX001 (ip), vehicle: other 100 % of control

CCN(CC)Cc1ccc(N)cc1O
inactive: [7] 106 % of control and 107 % of control | [8] 97 % of control and 98 % of control | [9] 99 % of control and 97 % of control

O=S(=O)(O)c1ccc(OCCCCCCCCCCOc2ccc(S(=O)(=O)O)cc2)cc1
inactive: dose: 60.0 mg/kg/injection, schedule: Q01DX005 (ip), vehicle: saline 105 % of control | dose: 120.0 mg/kg/injection, schedule: Q01DX005 (ip), vehicle: saline 102 % of control | dose: 240.0 mg/kg/injection, schedule: Q01DX005 (ip), vehicle: saline 98 % of control

CCN(CC)CCNc1ccc(COC(C)=O)c2oc3ccccc3c(=O)c12
inactive: dose: 6.25 mg/kg/injection, schedule: Q01DX005 (ip), vehicle: saline with Tween-80 111 % of control | [10] 118 % of control

CCC(=O)NC(Cc1ccccc1F)C(=O)O (stereo not given)
inactive: dose: 12.5 mg/kg/injection, schedule: Q01DX009 (ip), vehicle: saline 101 % of control | [1] 88 % of control | [7] 91 % of control and 93 % of control | [9] 95 % of control
